Test results published in EP4650362A1, “NEUROPROTECTIVE PSD-95 POLYPEPTIDE INHIBITOR AND USE THEREOF” (Beijing Tuo Jie Biopharmaceutical Co. Ltd., priority 2023, dated 2024).
Read-outs that look alike come from different tables or passages of the source. Non-standard residues stand in square brackets, D forms with d. Residues, ends and D or L forms follow the SMILES beside them. No end group written: not given here. Tle = CC(C)(C)[C@H](N)C(=O)O; Dab = NCC[C@H](N)C(=O)O; Aib = CC(C)(N)C(=O)O

Experiments:
human PSD95-PDZ2 = target: T1, human PSD95-PDZ2 (Homo sapiens, UniProt P78352); assay: binding ELISA with Biotin-PDZ2
T1 construct: PDZ2 (155-249, the Flag-His-Avitag-TEVsite tag is italicized); made in house; host or cells: E. coli BL21-DE3 (PET vector)
Description: The three PDZ domains in the PSD95 protein are structurally similar. Binding to the PDZ1 and PDZ2 domains can effectively block PSD95-mediated neuroexcitotoxicity. However, the biological function of binding to the PDZ3 domain is unclear. Therefore, to avoid potential safety concerns, this test example assessed the selectivity of polypeptide compounds for the PDZ2 and PDZ3 domains, aiming to identify polypeptide compounds that specifically bind to the PDZ2 domain. Site-specifically biotinylated Biotin-PDZ2 and Biotin-PDZ3 proteins were used for binding ELISA assays. […] After the blocking was complete, the blocking solution was discarded, and the plate was washed three times with PBST buffer. […] After the incubation was complete, the reaction solutions in the microplate were discarded, and the plate was washed three times with PBST. 100 µL of HRP-SA secondary antibody (diluted at 1:2000) was added to each well, and the plate was incubated at 37 °C for 1 h. After the plate was washed three times with PBST, 100 µL of TMB chromogenic substrate was added. […] The absorbance at 450 nm was measured using a SpectraMax M5 microplate reader, and the binding EC50 values of the test compounds to Biotin-PDZ2 or Biotin-PDZ3 were calculated using GraphPad Prism 9. […] The abilities of polypeptide compounds to bind to human PSD95-PDZ2 and human PSD95-PDZ3

[1] = plasma stability test, rat plasma; assay type: in vitro ADME
Protocol: (§1) Solution preparation: An appropriate amount of a test polypeptide compound was weighed out and dissolved in an appropriate amount of 1× PBS to form a 1 mM test solution. NA-1 and NoNO42 were used as positive drugs, propantheline bromide was used as a human plasma test control, and lovastatin was used as a rat plasma test control. Plasma stability test: 12.5 µL of the 1 mM test solution was added to a 495 µL pre-incubated plasma sample. […] For each incubation time, two parallel samples were set. Subsequently, 200 µL of stop solution was added to stop the incubation, and the mixtures were vortexed for 5 min. Then the mixtures were centrifuged at 10,000 rpm at 4 °C for 10 min to remove the protein in the sample, and 70 µL of the supernatant was transferred to a new 96-well plate (70 µL of water was added to each well beforehand) and well mixed. […] Sample pretreatment: […] LC-MS analysis: […] (2) Mass-spectrometric conditions: The mass spectrometry analysis used an electrospray ionization (ESI) source, a positive ion analysis mode, and a multi-reaction monitoring (MRM) scan mode. […] The plasma stability of the polypeptide compound

rabbit whole blood = assay: hemolysis risk test in rabbit whole blood; assay type: cell-based; conditions: concentration range of 1 to 50 µM
Protocol: Preparation of red blood cell suspension: 100 µL of fresh whole blood was collected, and 900 µL of 1× PBS solution was then added. The mixture was shaken on a plate shaker at 30 rpm for 5 min and then centrifuged at 1000 g for 5 min, and the supernatant was discarded. The above washing step was repeated until the supernatant no longer appeared red. The suspension was set aside for later use.
Preparation of test polypeptide solutions: An appropriate amount of 1× PBS solution was added to a powdered polypeptide, and the polypeptide was dissolved to form a standard stock solution. The stock solution was then diluted with 1× PBS to form test solutions with concentrations of 1, 3, 10, 30, 100, and 300 µg/mL, and two replicate wells were set for each concentration. Meanwhile, blank 1× PBS was used as a negative control, and a 1× PBS solution containing 0.1% Triton X-100 was used as a positive control.
Incubation: A test solution (500 µL) was added to the red blood cell suspension, and then the mixture was well shaken on a plate shaker at 30 rpm for 5 min, incubated at 37 °C for 1 h, and centrifuged at 1000 g for 5 min.
100 µL of the supernatant was transferred to a single well of a microplate. The absorbance at 540 nm was measured using a SpectraMax M5 microplate reader, and data analysis was performed using GraphPad Prism 9. The hemolysis rate (%) was calculated using the formula: (test sample absorbance - negative control absorbance) / (positive control absorbance - negative control absorbance) × 100%. A rate of less than 5% indicates the absence of hemolysis, while a rate of greater than 5% indicates the presence of hemolysis. Table 3. Testing of the hemolysis risk of the polypeptide compound
A method similar to that in section 3.3.2 was adopted, with the difference being that this test example used fresh rabbit whole blood instead.

[2] = plasma stability test with alteplase added, human plasma; assay type: in vitro ADME; conditions: Human plasma + rt-PA (50 µg/mL alteplase), 25 µM
Protocol: as §1, with “mixed. Plasma stability test with alteplase added: An appropriate amount of solid alteplase was weighed out, and an appropriate volume of water was added. The mixture was vortexed to dissolve alteplase, forming a 1 mg/mL solution of alteplase. 250 µL of the 1 mg/mL solution of alteplase was added to 4750 µL of plasma to form a plasma sample containing 50 µg/mL alteplase. The other procedures were the same as in the aforementioned "plasma stability test", with the difference being that the plasma sample containing 50 µg/mL alteplase was used instead of plasma.” for “mixed.”

[3] = Rat plasma, 25 µM, 0min (standard 100%)
[4] = Rat plasma, 25 µM, 10min, read-out: Relative remaining compound content (%)
[5] = Rat plasma, 25 µM, 20min, read-out: Relative remaining compound content (%)
[6] = Rat plasma, 25 µM, 30min, read-out: Relative remaining compound content (%)
[7] = Rat plasma, 25 µM, 60min, read-out: Relative remaining compound content (%)

T1 sequence (P78352 155-249): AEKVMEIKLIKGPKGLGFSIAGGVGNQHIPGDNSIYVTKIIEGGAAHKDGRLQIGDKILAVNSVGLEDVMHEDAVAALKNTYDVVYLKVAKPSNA

CC[C@H](C)[C@H](NC(=O)[C@H](CO)NC(=O)[C@H](CO)NC(=O)[C@H](CC(C)C)NC(=O)[C@@H](CCCCN)NC(=O)[C@H](CCCNC(=N)N)NC(=O)[C@H](CCCNC(=N)N)NC(=O)[C@@H](CCCNC(=N)N)NC(=O)[C@H](CCC(N)=O)NC(=O)[C@@H](CCCNC(=N)N)NC(=O)[C@H](CCCNC(=N)N)NC(=O)[C@H](CCCCN)NC(=O)[C@H](CCCCN)NC(=O)[C@@H](CCCNC(=N)N)NC(=O)CNC(=O)[C@@H](N)Cc1ccc(O)cc1)C(=O)N[C@@H](CCC(=O)O)C(=O)N[C@@H](CO)C(=O)N[C@@H](CC(=O)O)C(=O)N[C@H](C(=O)O)C(C)C [NoNO42, YGrKKRrQrRRkLSSIESDV, reference compound] (H-YG[dR]KKR[dR]Q[dR]RR[dK]LSSIESDV-OH)
EC50 (human PSD95-PDZ2): 98 nM | remaining at 10 min, 25 µM ([1]; rat, plasma): 98.4% | remaining at 20 min, 25 µM ([1]; rat, plasma): 93.6% | remaining at 0.5 h, 25 µM ([1]; rat, plasma): 93.6% | remaining at 1 h, 25 µM ([1]; rat, plasma): 90.8% | remaining at 2 h, 25 µM ([1]; rat, plasma): 95% | hemolysis rates (rabbit whole blood): less than 5%

CC(C)[C@H](NC(=O)[C@H](CC(=O)O)NC(=O)[C@@H](NC(=O)[C@@H](NC(=O)[C@@H](NC(=O)[C@@H](NC(=O)[C@H](CCN)NC(=O)C(C)(C)NC(=O)CNC(=O)[C@@H](CCCNC(=N)N)NC(=O)[C@@H](CCCNC(=N)N)NC(=O)[C@@H](CCCNC(=N)N)NC(=O)[C@@H](CCC(N)=O)NC(=O)[C@@H](CCCNC(=N)N)NC(=O)[C@@H](CCCNC(=N)N)NC(=O)[C@@H](CCCCN)NC(=O)[C@@H](CCCCN)NC(=O)[C@@H](CCCNC(=N)N)NC(=O)CNC(=O)[C@H](N)Cc1ccc(O)cc1)[C@@H](C)O)C(C)(C)C)C(C)(C)C)[C@@H](C)O)C(=O)O [Polypeptide compound 14, y-G-r-k-k-r-r-q-r-r-r-G-Aib-Dab-T-Tle-Tle-T-D-V] (H-[dY]G[dR][dK][dK][dR][dR][dQ][dR][dR][dR]G[Aib][Dab]T[Tle][Tle]TDV-OH)
EC50 (human PSD95-PDZ2; plate coated with 2 µM test compound, Biotin-PDZ2 titrated, read-out: EC50 (PDZ2)): 76 nM | Relative remaining compound content (%) [1, 3]: 100.0% | remaining at 10 min, 25 µM [1, 4]: 105% | remaining at 20 min, 25 µM [1, 5]: 117% | remaining at 0.5 h, 25 µM [1, 6]: 107% | remaining at 1 h, 25 µM [1, 7]: 109% | remaining at 2 h, 25 µM ([1]; Rat plasma, 25 µM, 120min, read-out: Relative remaining compound content (%)): 104% | Relative remaining compound content (%) ([2]; 0min (standard 100%)): 100.0% | Relative remaining compound content (%) ([2]; 10min): 98.6% | Relative remaining compound content (%) ([2]; 20min): 89.8% | Relative remaining compound content (%) ([2]; 30min): 85.8% | Relative remaining compound content (%) ([2]; 60min): 91.2% | Relative remaining compound content (%) ([2]; 120min): 92.3% | hemolysis rates (rabbit whole blood): less than 5%

CC(C)[C@H](NC(=O)[C@H](CC(=O)O)NC(=O)[C@@H](NC(=O)[C@@H](NC(=O)[C@@H](NC(=O)[C@@H](NC(=O)[C@H](CCN)NC(=O)C(C)(C)NC(=O)CNC(=O)[C@@H](CCCNC(=N)N)NC(=O)[C@H](CCCNC(=N)N)NC(=O)[C@H](CCCNC(=N)N)NC(=O)[C@H](CCC(N)=O)NC(=O)[C@@H](CCCNC(=N)N)NC(=O)[C@H](CCCNC(=N)N)NC(=O)[C@H](CCCCN)NC(=O)[C@H](CCCCN)NC(=O)[C@H](N)CCCNC(=N)N)[C@@H](C)O)C(C)(C)C)C(C)(C)C)[C@@H](C)O)C(=O)O [Polypeptide compound 22, r-K-K-R-r-Q-R-R-r-G-Aib-Dab-T-Tle-Tle-T-D-V] (H-[dR]KKR[dR]QRR[dR]G[Aib][Dab]T[Tle][Tle]TDV-OH)
Relative remaining compound content (%) [1, 3]: 100.0% | remaining at 10 min, 25 µM [1, 4]: 116% | remaining at 20 min, 25 µM [1, 5]: 105% | remaining at 0.5 h, 25 µM [1, 6]: 110% | remaining at 1 h, 25 µM [1, 7]: 102% | Relative remaining compound content (%) ([1]; Rat plasma, 25 µM, 120min): 124.8% | Relative remaining compound content (%) ([2]; 0min (standard 100%)): 100.0% | Relative remaining compound content (%) ([2]; 10min): 97.9% | Relative remaining compound content (%) ([2]; 20min): 95.8% | Relative remaining compound content (%) ([2]; 30min): 102.8% | Relative remaining compound content (%) ([2]; 60min): 91.3% | Relative remaining compound content (%) ([2]; 120min): 95.6% | hemolysis rates (rabbit whole blood): less than 5%

YGRKKRRQRRRKLSSIESDV [NA-1, YGRKKRRQR RRKLSSIESDV, reference compound]
EC50 (human PSD95-PDZ2): 83 nM | Relative remaining compound content (%) [1, 3]: 100.0% | Relative remaining compound content (%) ([1]; Rat plasma, 25 µM, 10min): 103.7% | Relative remaining compound content (%) ([1]; Rat plasma, 25 µM, 20min): 77.5% | Relative remaining compound content (%) ([1]; Rat plasma, 25 µM, 30min): 69.5% | Relative remaining compound content (%) ([1]; Rat plasma, 25 µM, 60min): 54.4% | Relative remaining compound content (%) ([1]; Rat plasma, 25 µM, 120min): 42.1% | remaining at 10 min, 25 µM ([1]; rat, plasma, Rat plasma, 25 µM, 10min, read-out: Relative remaining compound content (%)): 94.1% | remaining at 20 min, 25 µM ([1]; rat, plasma, Rat plasma, 25 µM, 20min, read-out: Relative remaining compound content (%)): 83% | remaining at 0.5 h, 25 µM ([1]; rat, plasma, Rat plasma, 25 µM, 30min, read-out: Relative remaining compound content (%)): 73.3% | remaining at 1 h, 25 µM ([1]; rat, plasma, Rat plasma, 25 µM, 60min, read-out: Relative remaining compound content (%)): 57% | remaining at 2 h, 25 µM ([1]; rat, plasma, Rat plasma, 25 µM, 120min, read-out: Relative remaining compound content (%)): 28.4% | Relative remaining compound content (%) ([2]; 0min (standard 100%)): 100.0% | Relative remaining compound content (%) ([2]; 10min): 23.9% | Relative remaining compound content (%) ([2]; 20min): 7.6% | Relative remaining compound content (%) ([2]; 30min): 3.4% | Relative remaining compound content (%) ([2]; 60min): 0.9% | Relative remaining compound content (%) ([2]; 120min): 0.3% | hemolysis rates (rabbit whole blood): less than 5%
